IC50 data for 31 compounds are collected here from patent US20230416205A1, “COMPOUNDS, COMPOSITIONS, AND METHODS” (Denali Therapeutics Inc, priority 2020, published 2023).

The experiment relates to NLRP3. Description: IL-1β secretion assay in PMA-differentiated, LPS/nigericin-stimulated THP-1 cells (384-well, ELISA read-out). The format is cell-based, human. Particulars: Homo sapiens. Summed up:
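THP-1 cells differentiated with PMA (5 ng/mL, 40 h), primed in serum-free medium with 25 ng/mL LPS for 2 h, treated with compounds 1 h (0.5% DMSO), then stimulated with nigericin for 2 h at 37 °C. Supernatant IL-1β measured by ELISA; responses normalized to LPS+5 μM nigericin and LPS-only controls.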

Where [1] appears, read: THP-1, IL-1β secretion, PMA-differentiated THP-1 cells, LPS then nigericin stimulation, ELISA read at 450 nm, read-out: Activity.
Setting [2] is: THP-1, Table 4, IL-1β secretion, LPS/nigericin-stimulated THP-1 cells, read-out: IC50.

Like-named read-outs stand apart in the source and are kept apart here.

As to `O=C(CN1CC2(CC2)c2cc(Br)ccc2C1=O)Nc1ccc2ocnc2c1` [Example 173, N-(1,3-benzoxazol-5-yl)-2-(6-bromo-1-oxospiro[3H-isoquinoline-4,1′-cyclopropane]-2-yl)acetamide], the IC50 reads like this: under setting [1], below 10 µM; under setting [2], 2.3 µM.

On to `CC(C)(O)CC1(NC(=O)CN2CC3(CC3)c3cc(Br)ccc3C2=O)CC1` [Example 174, 2-(6-bromo-1-oxospiro[3H-isoquinoline-4,1′-cyclopropane]-2-yl)-N-[1-(2-hydroxy-2-methylpropyl)cyclopropyl]acetamide], for which the IC50 under setting [1] is 10 to 15 µM and the IC50 under setting [2] is 10.9 µM.

Regarding `O=C(CN1CC2(CC2)c2cc(Br)ccc2C1=O)Nc1ccn2nccc2n1` [Example 175, 2-(6-bromo-1-oxospiro[3H-isoquinoline-4,1′-cyclopropane]-2-yl)-N-pyrazolo[1,5-a]pyrimidin-5-ylacetamide], the IC50 is below 10 µM under setting [1] and 0.672 µM under setting [2].

For the compound `O=C(CN1CC2(CC2)c2cc(Br)ccc2C1=O)Nc1cc2cccnc2cn1` [Example 176, 2-(6-bromo-1-oxospiro[3H-isoquinoline-4,1′-cyclopropane]-2-yl)-N-(1,7-naphthyridin-6-yl)acetamide], the IC50 reads like this: under setting [1], below 10 µM; under setting [2], 2.95 µM.

Take `N#Cc1ccc2c(c1)C1(CC1)CN(CC(=O)Nc1ncc(F)cn1)C2=O` [Example 177, 2-(6-cyano-1-oxospiro[3H-isoquinoline-4,1′-cyclopropane]-2-yl)-N-(5-fluoropyrimidin-2-yl)acetamide]: the IC50 is below 10 µM under setting [1] and 4.41 µM under setting [2].

Consider `CC1(C)CN(CC(=O)Nc2ncc(F)cn2)C(=O)c2ccc(Br)cc21` [Example 178, 2-(6-bromo-4,4-dimethyl-1-oxo-3H-isoquinolin-2-yl)-N-(5-fluoropyrimidin-2-yl)acetamide], for which the IC50 under setting [1] is below 10 µM and the IC50 under setting [2] worked out at 1.05 µM.

As for `O=C(CN1CC2(CC2)c2cc(Br)ccc2C1=O)Nc1cn2ccnc2cn1` [Example 179, 2-(6-bromo-1-oxospiro[3H-isoquinoline-4,1′-cyclopropane]-2-yl)-N-imidazo[1,2-a]pyrazin-6-ylacetamide], the IC50 runs as follows: under setting [1], below 10 µM; under setting [2], 2.24 µM.

Regarding `O=C(CN1CC2(CC2)c2cc(Br)ccc2C1=O)Nc1ccc2nccn2n1` [Example 180, 2-(6-bromo-1-oxospiro[3H-isoquinoline-4,1′-cyclopropane]-2-yl)-N-imidazo[1,2-b]pyridazin-6-ylacetamide], the IC50 by setting is: under setting [1], below 10 µM; under setting [2], 0.508 µM.

On to `O=C(CN1CC2(CC2)c2cc(Br)ccc2C1=O)Nc1nc2ccccn2n1` [Example 181], for which the IC50 is below 10 µM under setting [1] and 0.143 µM under setting [2].

Take `Cc1ccnc(NC(=O)CN2CC3(CC3)c3cc(Br)ccc3C2=O)c1` [Example 182, 2-(6-bromo-1-oxospiro[3H-isoquinoline-4,1′-cyclopropane]-2-yl)-N-(4-methylpyridin-2-yl)acetamide]: the IC50 runs as follows: under setting [1], below 10 µM; under setting [2], 3.14 µM.

As for `CS(=O)(=O)c1ccc(NC(=O)CN2CC3(CC3)c3cc(Br)ccc3C2=O)c(Cl)c1` [Example 183, 2-(6-bromo-1-oxospiro[3H-isoquinoline-4,1′-cyclopropane]-2-yl)-N-(2-chloro-4-methylsulfonylphenyl)acetamide], the IC50 by setting is: under setting [1], below 10 µM; under setting [2], 8.08 µM.

As for `Cc1nc(NC(=O)CN2CC3(CC3)c3cc(Br)ccc3C2=O)ncc1F` [Example 184, 2-(6-bromo-1-oxospiro[3H-isoquinoline-4,1′-cyclopropane]-2-yl)-N-(5-fluoro-4-methylpyrimidin-2-yl)acetamide], the IC50 by setting is: under setting [1], below 10 µM; under setting [2], 0.651 µM.

Regarding `COc1cnc(NC(=O)CN2CC3(CC3)c3cc(Br)ccc3C2=O)nc1` [Example 185, 2-(6-bromo-1-oxospiro[3H-isoquinoline-4,1′-cyclopropane]-2-yl)-N-(5-methoxypyrimidin-2-yl)acetamide], the IC50 by setting is: under setting [1], below 10 µM; under setting [2], 0.469 µM.

As for `O=C(CN1CC2(CC2)c2cc(Br)ccc2C1=O)Nc1ncc(-n2cccn2)cc1F` [Example 186, 2-(6-bromo-1-oxospiro[3H-isoquinoline-4,1′-cyclopropane]-2-yl)-N-(3-fluoro-5-pyrazol-1-ylpyridin-2-yl)acetamide], the IC50 under setting [1] is below 10 µM and the IC50 under setting [2] amounted to 5.23 µM.

Turning to `Cc1nc(-c2ccnc(NC(=O)CN3CC4(CC4)c4cc(Br)ccc4C3=O)n2)cs1` [Example 187, 2-(6-bromo-1-oxospiro[3H-isoquinoline-4,1′-cyclopropane]-2-yl)-N-[4-(2-methyl-1,3-thiazol-4-yl)pyrimidin-2-yl]acetamide], the IC50 under setting [1] was below 10 µM and the IC50 under setting [2] came out at 0.871 µM.

Consider `O=C(CN1CC2(CC2)c2cc(Br)ccc2C1=O)Nc1nc2n(n1)CCC2` [Example 188, 2-(6-bromo-1-oxospiro[3H-isoquinoline-4,1′-cyclopropane]-2-yl)-N-(6,7-dihydro-5H-pyrrolo[1,2-b][1,2,4]triazol-2-yl)acetamide], for which the IC50 is below 10 µM under setting [1] and 1.29 µM under setting [2].

`Cn1ncc2nc(NC(=O)CN3CC4(CC4)c4cc(Br)ccc4C3=O)ccc21` [Example 189, 2-(6-bromo-1-oxospiro[3H-isoquinoline-4,1′-cyclopropane]-2-yl)-N-(1-methylpyrazolo[4,3-b]pyridin-5-yl)acetamide]: the IC50 runs as follows: under setting [1], below 10 µM; under setting [2], 3.76 µM.

As for `Cn1cc2nc(NC(=O)CN3CC4(CC4)c4cc(Br)ccc4C3=O)ccc2n1` [Example 190, 2-(6-bromo-1-oxospiro[3H-isoquinoline-4,1′-cyclopropane]-2-yl)-N-(2-methylpyrazolo[4,3-b]pyridin-5-yl)acetamide], the IC50 by setting is: under setting [1], below 10 µM; under setting [2], 0.691 µM.

`O=C(CN1CC2(CC2)c2cc(Br)ccc2C1=O)Nc1ccc2ccncc2c1` [Example 191, 2-(6-bromo-1-oxospiro[3H-isoquinoline-4,1′-cyclopropane]-2-yl)-N-isoquinolin-7-ylacetamide]: the IC50 reads like this: under setting [1], below 10 µM; under setting [2], 1.15 µM.

For the compound `O=C(CN1CC2(CC2)c2cc(Br)ccc2C1=O)Nc1ncncn1` [Example 192, 2-(6-bromo-1-oxospiro[3H-isoquinoline-4,1′-cyclopropane]-2-yl)-N-(1,3,5-triazin-2-yl)acetamide], the IC50 is below 10 µM under setting [1] and 0.309 µM under setting [2].

In the case of `O=C(CN1CC2(CC2)c2cc(Br)ccc2C1=O)Nc1ncc(C(F)(F)F)cn1` [Example 193, 2-(6-bromo-1-oxospiro[3H-isoquinoline-4,1′-cyclopropane]-2-yl)-N-[5-(trifluoromethyl)pyrimidin-2-yl]acetamide], the IC50 under setting [1] is below 10 µM and the IC50 under setting [2] was found to be 0.24 µM.

Regarding `O=C(CN1CC2(CC2)c2cc(Br)ccc2C1=O)Nc1ncc(C2CC2)cn1` [Example 194, 2-(6-bromo-1-oxospiro[3H-isoquinoline-4,1′-cyclopropane]-2-yl)-N-(5-cyclopropylpyrimidin-2-yl)acetamide], the IC50 under setting [1] was below 10 µM and the IC50 under setting [2] was 0.39 µM.

Turning to `O=C(CN1CC2(CC2)c2cc(Br)ccc2C1=O)Nc1ccc(C(F)F)cn1` [Example 195, 2-(6-bromo-1-oxospiro[3H-isoquinoline-4,1′-cyclopropane]-2-yl)-N-[5-(difluoromethyl)pyridin-2-yl]acetamide], the IC50 is below 10 µM under setting [1] and 1.01 µM under setting [2].

As to `O=C(CN1CC2(CC2)c2cc(Br)ccc2C1=O)Nc1ccc(Cl)cn1` [Example 196, 2-(6-bromo-1-oxospiro[3H-isoquinoline-4,1′-cyclopropane]-2-yl)-N-(5-chloropyridin-2-yl)acetamide], the IC50 is below 10 µM under setting [1] and 0.516 µM under setting [2].

`O=C(CN1CC2(CC2)c2cc(Br)ccc2C1=O)Nc1ncc2ccccc2n1` [Example 197, 2-(6-bromo-1-oxospiro[3H-isoquinoline-4,1′-cyclopropane]-2-yl)-N-quinazolin-2-ylacetamide]: the IC50 under setting [1] was below 10 µM and the IC50 under setting [2] amounted to 1.25 µM.

In the case of `O=C(CN1CC2(CC2)c2cc(Br)ccc2C1=O)Nc1ccc2ccccc2n1` [Example 198, 2-(6-bromo-1-oxospiro[3H-isoquinoline-4,1′-cyclopropane]-2-yl)-N-quinolin-2-ylacetamide], the IC50 runs as follows: under setting [1], below 10 µM; under setting [2], 1.5 µM.

With `O=C(CN1CC2(CC2)c2cc(Br)ccc2C1=O)Nc1ccc2cccnc2n1` [Example 199, 2-(6-bromo-1-oxospiro[3H-isoquinoline-4,1′-cyclopropane]-2-yl)-N-(1,8-naphthyridin-2-yl)acetamide], the IC50 under setting [1] was below 10 µM and the IC50 under setting [2] amounted to 1.37 µM.

Turning to `O=C(CN1CC2(CC2)c2cc(Br)ccc2C1=O)Nc1ccc2cncn2c1` [Example 201, 2-(6-bromo-1-oxospiro[3H-isoquinoline-4,1′-cyclopropane]-2-yl)-N-imidazo[1,5-a]pyridin-6-ylacetamide], the IC50 is, setting by setting: under setting [1], below 10 µM; under setting [2], 1.32 µM.

On to `Cc1cnc(NC(=O)CN2CC3(CC3)c3cc(Br)ccc3C2=O)nc1` [Example 202, 2-(6-bromo-1-oxospiro[3H-isoquinoline-4,1′-cyclopropane]-2-yl)-N-(5-methylpyrimidin-2-yl)acetamide], for which the IC50 is below 10 µM under setting [1] and 0.187 µM under setting [2].

Turning to `CCc1cnc(NC(=O)CN2CC3(CC3)c3cc(Br)ccc3C2=O)nc1` [Example 204, 2-(6-bromo-1-oxospiro[3H-isoquinoline-4,1′-cyclopropane]-2-yl)-N-(5-ethylpyrimidin-2-yl)acetamide], the IC50 was below 10 µM under setting [1] and 0.646 µM under setting [2].

As to `O=C(CN1CC2(CC2)c2cc(Br)ccc2C1=O)Nc1nc2ccccc2o1` [Example 205, N-(1,3-benzoxazol-2-yl)-2-(6-bromo-1-oxospiro[3H-isoquinoline-4,1′-cyclopropane]-2-yl)acetamide], the IC50 is below 10 µM under setting [1] and 0.306 µM under setting [2].
